According to US20200071667A1, “COMPOSITION COMPRISING GLYCYRRHIZIN FOR INDUCING DIFFERENTIATION INTO MYELOID-DERIVED SUPPRESSOR CELL FROM MYELOID CELL” (Konkuk University Glocal Industry-Academic Collabo, priority 2018, published 2020):

Tests used:
[1] = test system: myeloid cells having a phenotype of CD31+; assay: Myeloid cell proliferation after glycyrrhizin treatment without LPS stimulation; format: cell-based, mouse; conditions: 100, 200 or 300 μg/ml; cultured 48 hours; without stimulation by LPS
Experimental: It was examined whether myeloid cells are capable of proliferating even when treated with glycyrrhizin alone without stimulation of the myeloid cells with LPS.
Specifically, myeloid cells having a phenotype of CD31+ were isolated from mouse myeloid cells obtained in the same manner as in Example 2-2. The myeloid cells were treated with glycyrrhizin at a concentration of 100 μg/ml, 200 μg/ml, or 300 μg/ml, and then cultured for 48 hours. As a control, the myeloid cells were treated with 0.1 ml of PBS. Subsequently, the expression level of myeloid cells was examined by the same flow cytometric analysis as that used in Example <2-1>.

mouse myeloid cells = assay: Differentiation into CD11b+Gr1 myeloid cells by glycyrrhizin concentration and culture time, flow cytometric analysis; format: cell-based; conditions: for expression level of CD11b+Gr1 myeloid cells: 300 μg/ml
Experimental: Flow cytometric analysis was performed to determine whether the concentration of glycyrrhizin with which myeloid cells were treated or culture time affects differentiation into CD11b+Gr1 myeloid cells from myeloid cells.
Specifically, mouse myeloid cells were obtained in the same manner as in Example <2-2>, treated with glycyrrhizin at a concentration of 100 μg/ml, 200 μg/ml, or 300 μg/ml, and then cultured for 24 hours or 48 hours. As a control, the myeloid cells were treated with 0.1 ml of PBS. Subsequently, the expression level of the myeloid cells was examined by the same flow cytometric analysis as that used in Example <2-1>.

iNOS = iNOS measurement by RT-PCR in glycyrrhizin-treated myeloid cells; format: cell-based, mouse; conditions: 100, 200 or 300 μg/ml, cultured 48 hours, vs negative control
Experimental: Specifically, myeloid cells were isolated from mice of the control of Example 1, treated with glycyrrhizin at a concentration of 100 μg/ml, 200 μg/ml, or 300 μg/ml, and then cultured for 48 hours. Thereafter, RT-PCR was performed. As a negative control, the myeloid cells were treated with 0.1 ml of PBS, and GAPDH was used as an expression control.

T cells = assay: T cell activity measurement by CFSE analysis with glycyrrhizin-induced CD11b+Gr1 myeloid cells as stimulator cells; format: cell-based, mouse; conditions: stimulator cells from 300 μg/ml glycyrrhizin, 48 hours; responder:stimulator 1:1, 1:2, 1:4; 3 days
Experimental: Specifically, mouse myeloid cells were obtained in the same manner as in Example <2-2>, treated with 300 μg/ml of glycyrrhizin, and then cultured for 48 hours. Subsequently, CD11b+Gr1 myeloid cells induced to be differentiated were stained and separated with FACSAria to be used as stimulator cells, and for responder cells, T cells were isolated with FACSAria from splenocytes of mice of the control of Example 1 and stained with CFSE. The responder cells and the stimulator cells were treated with CD3 and CD28, which induce the activity of T cells, at a ratio of 1:1, 1:2, or 1:4 and further cultured for 3 days.

`CC1(C)[C@@H](O[C@H]2O[C@H](C(=O)O)[C@@H](O)[C@H](O)[C@H]2O[C@@H]2O[C@H](C(=O)O)[C@@H](O)[C@H](O)[C@H]2O)CC[C@]2(C)[C@H]3C(=O)C=C4[C@@H]5C[C@@](C)(C(=O)O)CC[C@]5(C)CC[C@@]4(C)[C@]3(C)CC[C@@H]12` [glycyrrhizin, ammonium glycyrrhizinate] was tested, and the “proliferation of the myeloid cells” value [1] was “increased in a manner dependent upon the concentration of glycyrrhizin”, the “expression level of CD11b+Gr1 myeloid cells” value (mouse myeloid cells; cultured 24 hours (control 9.10%)) was 29.5% and the “expression level of CD11b+Gr1 myeloid cells” value (mouse myeloid cells; cultured 48 hours (control 10.8%)) was 53.1%. For the same compound, the “expression level of CD11b+Gr1 myeloid cells, concentration dependence” value (mouse myeloid cells; 100, 200 or 300 μg/ml, cultured 24 hours) was “increased in a concentration-dependent manner”, the “expression level of iNOS” value (iNOS) was “increased in a concentration-dependent manner” and the “activity of T cells” value (T cells) was “the higher the proportion of the stimulator cells (CD11b+Gr1 myeloid cells), the lower the activity of T cells”.
